# Patent US6060038A, “Radiolabeled farnesyl-protein transferase inhibitors” (Merck & Co., Inc., priority 1998, dated 2000)
# Counter-ions that a name gives are not always drawn.
# Experiments:
# [1] = Radiochemical decomposition of stored radiotracer samples; assay type: physicochemical; conditions: stored for up to 90 minutes in sterile glass vial; saline/sodium bicarbonate
# Description: The container used for the drug is described above. It consists of a sterile, pyrogen free glass vial with a crimp-sealed aluminum cap surrounding a rubber stopper. Samples of the radiotracer have been stored for up to 90 minutes and analyzed for radiochemical decomposition.
# [2] = tested on: FPTase; assay: PET Imaging in Dogs: block of [^11 C]-Compound 1 radiotracer binding by infused FTI; assay type: in vivo, beagle dogs; conditions: 10 mpk infused over 5 minutes, radiotracer [^11 C]-Compound 1
# Description: Kinetics of enzyme occupancy by an unlabeled FPTase inhibitor (test compound) is determined by this assay. Thus, FVB mice are injected the test compound at either 40 mpk or 10 mpk subcutaneously (0.1 mls). Thirty minutes prior to euthanasia, 3 nCi of tritiated farnesyl protein transferase inhibitor (radiotracer) was injected i.p. (0.2 mls 10% EtOH in 0.9% saline). Uninhibited binding of the radiotracer is determined by injection of the radiotracer in mice which have not received injection of the test compound. The mice are euthanized either 2 hours of 14 hours after injection of the test compound and lung, spleen, pancrease and blood are removed and processed as described above. Data are plotted as %-dose/g of tissue (wet weight). […]
# Oxygen saturation of circulating blood is measured with a pulse oximeter (Nellcor Inc., Hayward, Calif.) placed on the tongue of the animal. […] EKG, heart rate, and core temperature are monitored continuously. […]
# For uninhibited distribution of radiotracer, regions of interest (ROIs) are drawn on the reconstructed image includes the kidney cortex and a region of liver which is removed from the gallbladder images. […] Data are expressed as radioactivity per unit time per unit volume (μCi/cc/mCi injected dose). […]
Structure (SMILES),radiochemical decomposition on storage [1],block of radiotracer binding [2]
"[11CH3]S(=O)(=O)CC[C@H]1CN(c2cc(I)cc(CF)c2)C(=O)CN1Cc1cncn1Cc1ccc(C#N)cc1 [[^11 C]-Compound 1, (S)-1-(3-iodo-5-fluoromethylphenyl)-4-[1-(4-cyanobenzyl)-5-imidazolylmethyl]-5-[2-(^11 C-methanesulfonyl)ethyl]-2-piperazinone dihydrochloride]",No decomposition has been observed,–
"CCCC[C@H]1CN(c2cccc(C)c2C)C(=O)CN1Cc1cncn1Cc1ccc(C#N)cc1.O=C(O)C(F)(F)F.O=C(O)C(F)(F)F [Compound 3, 5(S)-n-Butyl-4-[1-(4-cyanobenzyl)imidazol-5-ylmethyl]-1-(2,3-dimethylphenyl)piperazin-2-one ditrifluoroacetic acid salt]",–,completely block radiotracer binding
